Assay results taken from US20150232876A1, “Use of a Receptor Kinase Having LysM Motifs in Order to Improve the Response of Plants to Lipochitooligosaccharides” (INSTITUT NATIONAL DE LA RECHERCHE AGRONOMIQUE, priority 2012, published 2015).

Assays:
[1] = test system: 100 kDa polypeptide (MtNFBS2); assay: Photolabeling of the 100 kDa polypeptide in membrane fractions, with excess competitors; type: binding, Medicago truncatula; conditions: 2 μM competitor, 5 nM azido ligand, dmi3 membrane fraction
Excerpt: To assess the molecular mass of the affine protein of Nod factors responsible for binding properties of MtNFBS2, a photolabeling with Nod factors analogs containing a photoactivatable group, which after irradiation in a given wavelength reactive species which can form a covalent bond with the surrounding molecules, has been taken. […] homologues of these molecules have been synthesized and labeled with ^35S to enable detection of the stable complex ligand/binding protein.
For photolabeling, 5 nM of radioactive and photoactivatable ligand, alone or in the presence of an excess (2 μM) different competitors were incubated in binding buffer, in the same conditions as described in Example 1 above for the binding experiments at equilibrium, with 300 micrograms of membrane protein fraction obtained from cultured cells of wild-type Medicago truncatula (A 17), or the dmi3 mutant of Medicago truncatula. After 1 hour of incubation, the samples were irradiated for 5 min at 254 nm or 10 min at 365 nm with a fluorescent tube at a distance of 4 cm. The free ligand was removed by centrifugation, and the membrane pellet was washed two times in binding buffer.
The membrane pellet proteins were separated by polyacrylamide gel electrophoresis in 10% SDS, and transferred onto nitrocellulose membrane, and detection was carried out by autoradiography.

LYR3 = LYR3 (Medicago truncatula, UniProt G7KAT5); assay: Saturation and competitive binding on LYR3-YFP expressed in N. benthamiana leaf membrane fractions; conditions: LYR3-YFP in N. benthamiana leaf membranes; competition with 0.9 nM LCO-IV(35S, C16:2Δ2,9); read-out: Affinity (nM) for LYR3 (Ki)
Excerpt: Genes LYR3, LYK9 and LYR6 were inserted into a binary vector, fused in C-terminal with a fluorescent protein (Yellow Fluorescent Protein: YFP) and introduced into Nicotiana benthamiana leaves using agroinfiltration by Agrobacterium tumefaciens. Meanwhile, NFP and LYK3 genes which encode putative receptors […] Nod factors were inserted into the same vectors and expressed in the same conditions.
3 days after agro-infiltration, leaves of N. benthamiana expressing the different constructs were harvested and ground in liquid nitrogen. Membrane fractions were prepared from the ground material, using the same protocol as that described above for the preparation of microsomal fractions, except that 0.6% (w/v) of polyvinyl-polypyrrolidone were added to extraction buffer. After centrifugation at 3000×g, the supernatant was collected and centrifuged at 45000×g. The resulting (membrane fraction) pellet was resuspended in binding buffer, and stored at −80° C. in the presence of 10% or 50% glycerol, until use.
Membrane proteins were separated by 10% polyacrylamide gel electrophoresis in SDS, and transferred onto nitrocellulose membrane, and detection of recombinant proteins made using anti-GFP antibody. Meanwhile, the properties of specific binding to LCOs were assessed by equilibrium binding, as described in Example 1, using 0.8 to 2.4 nM of LCO-IV (^35S, C16:2Δ2, 9) +/−2 μM of unlabeled LCO-IV (S, C16: 2Δ2, 9), and 25 micrograms to 80 micrograms of membrane protein, depending of the expression level of the protein labeled with YFP.
To further characterize the binding properties of the protein LYR3, saturation binding experiments using LCO-IV (^35S, C16:2Δ2, 9) and competitive binding experiments in the presence of different COs or LCOs were performed.

PpLYR3 = PpLYR3 (Prunus persica, UniProt A0A251NBL6); assay: Equilibrium, saturation and competition binding on PpLYR3 expressed in N. benthamiana leaves
Experimental: (§1) In non-legumes, PpLYR3, SILYR3 and AtLysM-RLK4 genes have been cloned, the corresponding proteins were expressed in N. benthamiana leaves, and their ability to bind to LCOs was determined by binding experiments at equilibrium, as described above for legumes LYR3 proteins.
The interaction of PpLYR3 with the Nod LCO-IV (^35S, C16:2Δ2, 9) factor has been characterized in more detail by means of saturation and competition experiments. The results obtained are illustrated in FIG. 9. […] Similarly, PpLYR3 specifically recognizes the LCOs as interaction with COs (CO-IV and CO-VIII) is of low affinity (Ki>5 μM).

PsLYR3 = PsLYR3 (Lathyrus oleraceus, UniProt A0A9D5BD18); assay: Equilibrium, saturation and competitive binding on MtLYR3 ortholog expressed in N. benthamiana leaves; design: species or system Pisum sativum; conditions: PsLYR3, 1 nM radioligand
Excerpt: (§2) In legumes, MtLYR3 orthologs have been identified in P. sativum, P. vulgaris and L. japonicus. In G. max orthologs exist in duplicate due to a duplication of the genome. The corresponding genes have been cloned and sequenced. A few differences in sequence compared with sequences in the databases were found which could be explained by the use of different varieties of plants or by sequencing errors in databases. The cloned genes were introduced into binary vectors, in C-terminal fusion with the fluorescent protein YFP, and introduced into Nicotiana benthamiana leaves using agroinfiltration by Agrobacterium tumefaciens, as described above in Example 3. The membrane fractions were isolated, their protein content was analyzed by electrophoresis under denaturing conditions, followed by immunodetection using anti-GFP antibody as described in Example 3, and their ability to interact with LCOs was determined by equilibrium binding, as described in Example 1, in the presence of 1 nM LCO-IV (S^35, C16:2Δ2, 9). The value of specific binding is determined by the value of difference between the total binding and the nonspecific binding obtained for incubation in the presence of an excess (2 μM) of unlabeled ligand. For comparison, the ability to interact of LjNFR5 and LjNFR1 receptors, identified in L. japonicus to play a role in nodulation by a genetic approach (MADSEN et al, Nature, 425, 637-40, 2003. RADUTOIU et al., Nature, 425, 585-92, 2003a) and respective orthologs of LYK3 and NFP in M. truncatula was determined under the same conditions.
(§3) To further characterize the binding properties of MtLYR3 orthologs to LCOs, saturation and competitive binding experiments in the presence of different COs or LCOs were performed.

GmLYR3-1 = GmLYR3-1 (Glycine max, UniProt A5YJW2); assay: as above; conditions: GmLYR3-1, 1 nM radioligand
Excerpt: as §2, §3

GmLYR3-11 = GmLYR3-11 (Glycine max, UniProt I1LHL9); assay: as above; conditions: GmLYR3-11, 1 nM radioligand
Excerpt: as §2, §3

LjLYS12 = LjLYS12 (Lotus japonicus, UniProt D3KTZ9); assay: as above; conditions: LjLYS12, 1 nM radioligand
Excerpt: as §2, §3

PvLYR3 = PvLYR3 (Phaseolus vulgaris, UniProt V7CFC1); assay: as above; conditions: PvLYR3, 1 nM radioligand
Excerpt: as §2, §3

LjNFR1 = assay: Equilibrium binding on receptor expressed in N. benthamiana leaves; design: species or system Lotus japonicus; conditions: LjNFR1, 1 nM radioligand
Excerpt: as §2, with “For comparison, the ability to interact of LjNFR5 and LjNFR1 receptors, identified in L. japonicus to play a role in nodulation by a genetic approach (MADSEN et al, Nature, 425, 637-40, 2003. RADUTOIU et al., Nature, 425, 585-92, 2003a) and respective orthologs of LYK3 and NFP in M. truncatula was determined under the same conditions.” left out

LjNFR5 = assay: as above; design: species or system Lotus japonicus; conditions: LjNFR5, 1 nM radioligand
Excerpt: as §2, with “For comparison, the ability to interact of LjNFR5 and LjNFR1 receptors, identified in L. japonicus to play a role in nodulation by a genetic approach (MADSEN et al, Nature, 425, 637-40, 2003. RADUTOIU et al., Nature, 425, 585-92, 2003a) and respective orthologs of LYK3 and NFP in M. truncatula was determined under the same conditions.” left out

SILYR3 = assay: Equilibrium binding on SILYR3 expressed in N. benthamiana leaves; design: species or system Solanum lycopersicum
Experimental: as §1

AtLysM-RLK4 = target: T1, AtLysM-RLK4 (Arabidopsis thaliana, UniProt O64825); assay: Equilibrium binding on AtLysM-RLK4 expressed in N. benthamiana leaves
T1 construct: YFP (implied by anti-GFP immunopurification); expressed in transfected cells; host or cells: Nicotiana benthamiana leaves, membrane fraction
T1 sequence (O64825 23-612): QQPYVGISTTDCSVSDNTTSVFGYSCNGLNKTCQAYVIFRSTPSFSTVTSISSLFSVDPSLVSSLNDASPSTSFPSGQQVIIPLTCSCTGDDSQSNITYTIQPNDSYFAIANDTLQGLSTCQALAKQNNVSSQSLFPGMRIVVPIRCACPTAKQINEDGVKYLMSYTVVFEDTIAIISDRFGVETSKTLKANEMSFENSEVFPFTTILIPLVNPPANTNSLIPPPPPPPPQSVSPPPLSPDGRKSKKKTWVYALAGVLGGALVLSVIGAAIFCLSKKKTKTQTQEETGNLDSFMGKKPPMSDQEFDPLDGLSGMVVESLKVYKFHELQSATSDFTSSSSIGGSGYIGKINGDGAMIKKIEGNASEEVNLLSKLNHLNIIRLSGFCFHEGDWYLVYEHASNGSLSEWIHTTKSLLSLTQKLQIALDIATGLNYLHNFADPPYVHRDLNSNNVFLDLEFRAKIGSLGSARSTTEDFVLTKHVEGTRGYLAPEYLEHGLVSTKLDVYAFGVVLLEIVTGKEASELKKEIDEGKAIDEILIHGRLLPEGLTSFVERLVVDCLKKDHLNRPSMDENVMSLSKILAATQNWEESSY
Experimental: as §1

PpLYR3, sequence (A0A251NBL6 entry or part of it): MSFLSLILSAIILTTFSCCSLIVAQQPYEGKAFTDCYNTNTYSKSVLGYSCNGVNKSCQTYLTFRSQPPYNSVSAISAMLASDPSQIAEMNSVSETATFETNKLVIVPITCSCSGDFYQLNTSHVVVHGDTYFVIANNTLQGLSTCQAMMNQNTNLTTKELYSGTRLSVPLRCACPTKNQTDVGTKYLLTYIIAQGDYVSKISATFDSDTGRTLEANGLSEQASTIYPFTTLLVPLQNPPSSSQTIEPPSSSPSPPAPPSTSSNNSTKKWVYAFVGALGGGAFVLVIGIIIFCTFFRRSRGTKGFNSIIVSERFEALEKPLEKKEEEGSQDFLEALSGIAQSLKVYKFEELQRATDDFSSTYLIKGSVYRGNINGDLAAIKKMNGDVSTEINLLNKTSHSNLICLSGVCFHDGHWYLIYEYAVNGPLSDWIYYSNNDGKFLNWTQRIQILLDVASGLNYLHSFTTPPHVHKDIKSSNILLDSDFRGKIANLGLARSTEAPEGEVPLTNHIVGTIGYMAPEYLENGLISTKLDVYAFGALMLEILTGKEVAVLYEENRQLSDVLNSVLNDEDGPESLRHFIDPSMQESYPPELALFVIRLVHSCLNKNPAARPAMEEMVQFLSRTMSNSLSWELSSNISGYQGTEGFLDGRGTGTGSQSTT
PvLYR3, sequence (V7CFC1 entry or part of it): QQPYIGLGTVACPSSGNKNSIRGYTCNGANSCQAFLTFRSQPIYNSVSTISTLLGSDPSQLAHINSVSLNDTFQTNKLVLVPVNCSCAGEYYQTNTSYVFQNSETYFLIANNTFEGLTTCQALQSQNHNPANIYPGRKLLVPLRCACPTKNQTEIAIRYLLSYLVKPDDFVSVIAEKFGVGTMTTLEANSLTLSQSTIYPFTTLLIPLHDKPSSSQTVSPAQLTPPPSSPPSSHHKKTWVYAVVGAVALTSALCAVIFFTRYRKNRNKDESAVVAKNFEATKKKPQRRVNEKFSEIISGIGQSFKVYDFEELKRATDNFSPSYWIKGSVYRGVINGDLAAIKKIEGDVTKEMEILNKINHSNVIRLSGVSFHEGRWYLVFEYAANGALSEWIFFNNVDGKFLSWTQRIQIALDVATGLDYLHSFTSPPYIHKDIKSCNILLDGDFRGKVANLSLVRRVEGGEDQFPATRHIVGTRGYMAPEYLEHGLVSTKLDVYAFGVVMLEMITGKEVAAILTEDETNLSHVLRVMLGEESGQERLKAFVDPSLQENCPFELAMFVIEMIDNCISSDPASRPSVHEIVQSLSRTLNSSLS
GmLYR3-11, sequence (I1LHL9 entry or part of it): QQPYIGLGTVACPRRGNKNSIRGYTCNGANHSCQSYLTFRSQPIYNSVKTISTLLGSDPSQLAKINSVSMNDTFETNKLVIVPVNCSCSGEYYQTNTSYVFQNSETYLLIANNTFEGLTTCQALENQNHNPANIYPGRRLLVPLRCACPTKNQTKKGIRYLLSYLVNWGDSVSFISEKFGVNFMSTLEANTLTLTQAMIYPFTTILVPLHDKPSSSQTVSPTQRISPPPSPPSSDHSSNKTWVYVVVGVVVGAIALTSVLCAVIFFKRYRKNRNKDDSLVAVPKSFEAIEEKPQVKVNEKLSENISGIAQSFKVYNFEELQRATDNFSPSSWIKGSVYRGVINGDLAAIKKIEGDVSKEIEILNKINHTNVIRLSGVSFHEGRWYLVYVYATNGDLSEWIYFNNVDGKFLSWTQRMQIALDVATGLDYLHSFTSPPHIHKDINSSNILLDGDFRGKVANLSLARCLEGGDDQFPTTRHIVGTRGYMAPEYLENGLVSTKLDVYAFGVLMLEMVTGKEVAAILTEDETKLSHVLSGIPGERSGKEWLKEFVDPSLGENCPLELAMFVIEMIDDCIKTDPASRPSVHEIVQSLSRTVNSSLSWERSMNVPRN
LjLYS12, sequence (D3KTZ9 entry or part of it): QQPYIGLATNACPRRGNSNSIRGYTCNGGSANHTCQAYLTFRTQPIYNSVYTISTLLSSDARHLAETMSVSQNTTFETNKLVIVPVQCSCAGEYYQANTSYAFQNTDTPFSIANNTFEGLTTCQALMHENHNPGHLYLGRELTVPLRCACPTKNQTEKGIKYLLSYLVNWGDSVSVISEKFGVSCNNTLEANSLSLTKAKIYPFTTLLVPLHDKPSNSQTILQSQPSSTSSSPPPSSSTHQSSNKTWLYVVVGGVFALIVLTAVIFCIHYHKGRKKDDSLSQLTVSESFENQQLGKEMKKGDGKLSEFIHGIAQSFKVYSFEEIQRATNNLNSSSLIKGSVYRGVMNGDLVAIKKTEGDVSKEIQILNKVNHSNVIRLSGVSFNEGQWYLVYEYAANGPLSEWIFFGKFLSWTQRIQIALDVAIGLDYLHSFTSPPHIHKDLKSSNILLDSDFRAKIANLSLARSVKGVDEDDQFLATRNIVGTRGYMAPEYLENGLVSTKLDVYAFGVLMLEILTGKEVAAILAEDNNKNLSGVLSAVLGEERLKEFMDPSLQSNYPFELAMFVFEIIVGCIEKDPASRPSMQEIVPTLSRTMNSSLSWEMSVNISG
GmLYR3-1, sequence (A5YJW2 entry or part of it): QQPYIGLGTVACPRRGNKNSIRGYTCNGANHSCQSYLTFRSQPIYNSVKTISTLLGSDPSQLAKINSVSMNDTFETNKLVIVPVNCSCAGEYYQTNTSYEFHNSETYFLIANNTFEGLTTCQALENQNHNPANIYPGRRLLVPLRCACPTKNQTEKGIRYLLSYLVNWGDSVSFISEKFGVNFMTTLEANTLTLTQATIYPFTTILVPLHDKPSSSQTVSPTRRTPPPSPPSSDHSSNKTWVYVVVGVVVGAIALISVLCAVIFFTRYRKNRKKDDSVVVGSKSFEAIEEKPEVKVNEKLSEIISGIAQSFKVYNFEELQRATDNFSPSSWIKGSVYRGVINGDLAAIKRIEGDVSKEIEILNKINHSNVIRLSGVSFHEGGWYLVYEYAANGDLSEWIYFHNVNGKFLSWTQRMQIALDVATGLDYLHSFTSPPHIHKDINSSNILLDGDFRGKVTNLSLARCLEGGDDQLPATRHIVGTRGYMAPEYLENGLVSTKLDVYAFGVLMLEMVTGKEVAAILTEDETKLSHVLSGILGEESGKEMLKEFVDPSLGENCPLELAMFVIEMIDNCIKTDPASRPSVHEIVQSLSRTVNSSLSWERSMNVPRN
LYR3, sequence (G7KAT5 entry or part of it): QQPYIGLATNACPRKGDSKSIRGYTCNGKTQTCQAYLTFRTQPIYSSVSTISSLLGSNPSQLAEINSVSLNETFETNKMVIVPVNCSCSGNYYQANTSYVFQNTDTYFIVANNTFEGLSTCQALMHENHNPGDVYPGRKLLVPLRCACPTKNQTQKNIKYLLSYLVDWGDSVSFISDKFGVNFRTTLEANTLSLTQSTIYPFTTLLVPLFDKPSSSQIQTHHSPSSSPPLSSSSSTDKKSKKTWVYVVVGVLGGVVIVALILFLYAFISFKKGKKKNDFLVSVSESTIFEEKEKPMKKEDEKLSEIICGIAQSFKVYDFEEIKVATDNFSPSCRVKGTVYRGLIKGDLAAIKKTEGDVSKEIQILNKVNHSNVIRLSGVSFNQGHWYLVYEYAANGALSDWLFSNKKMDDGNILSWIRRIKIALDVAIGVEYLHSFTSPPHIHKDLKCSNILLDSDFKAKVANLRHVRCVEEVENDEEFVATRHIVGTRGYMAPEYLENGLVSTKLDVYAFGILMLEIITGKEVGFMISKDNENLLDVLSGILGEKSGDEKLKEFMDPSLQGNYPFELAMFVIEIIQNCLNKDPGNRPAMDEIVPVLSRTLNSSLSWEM
PsLYR3, sequence (A0A9D5BD18 entry or part of it): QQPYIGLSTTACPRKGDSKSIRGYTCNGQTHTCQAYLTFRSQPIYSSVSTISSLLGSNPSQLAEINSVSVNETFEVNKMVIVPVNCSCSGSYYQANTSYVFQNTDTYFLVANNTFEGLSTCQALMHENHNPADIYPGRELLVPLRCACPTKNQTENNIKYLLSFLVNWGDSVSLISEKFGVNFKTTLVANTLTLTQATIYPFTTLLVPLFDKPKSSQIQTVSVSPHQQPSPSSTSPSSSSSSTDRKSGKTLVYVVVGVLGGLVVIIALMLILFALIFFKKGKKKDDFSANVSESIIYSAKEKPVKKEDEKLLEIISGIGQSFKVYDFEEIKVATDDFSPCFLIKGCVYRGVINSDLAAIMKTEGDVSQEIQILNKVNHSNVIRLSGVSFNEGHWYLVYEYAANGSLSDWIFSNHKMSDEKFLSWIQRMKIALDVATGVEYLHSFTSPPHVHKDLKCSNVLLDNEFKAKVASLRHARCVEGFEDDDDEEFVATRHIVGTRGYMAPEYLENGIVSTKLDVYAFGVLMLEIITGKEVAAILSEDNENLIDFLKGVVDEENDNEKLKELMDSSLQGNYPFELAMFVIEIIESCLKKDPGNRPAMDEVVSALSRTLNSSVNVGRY

SMILES | binding of the radiolabeled photoactivatable ligand to the 100 kDa polypeptide in presence of excess competitor [1] | Ki (LYR3) | Ki (PpLYR3; PpLYR3, competition) | binding activity of membrane fractions (interaction with radioligand) (PsLYR3) | binding activity of membrane fractions (interaction with radioligand) (GmLYR3-1) | binding activity of membrane fractions (interaction with radioligand) (GmLYR3-11) | binding activity of membrane fractions (interaction with radioligand) (LjLYS12) | binding activity of membrane fractions (interaction with radioligand) (PvLYR3) | binding activity of membrane fractions (interaction with radioligand) (LjNFR1) | binding activity of membrane fractions (interaction with radioligand) (LjNFR5) | binding activity of membrane fractions (interaction with radioligand) (PpLYR3; PpLYR3) | Kd (PpLYR3; PpLYR3, saturation) | binding activity of membrane fractions (interaction with radioligand) (SILYR3) | binding activity of membrane fractions (interaction with radioligand) (AtLysM-RLK4)
CC(=O)N[C@H]1[C@H](O[C@H]2[C@H](O)[C@@H](NC(C)=O)C(O)O[C@@H]2CO)O[C@H](CO)[C@@H](O[C@@H]2O[C@H](CO)[C@@H](O[C@@H]3O[C@H](CO)[C@@H](O)[C@H](O)[C@H]3NC(C)=O)[C@H](O)[C@H]2NC(C)=O)[C@@H]1O (some centres unmarked) [CO-IV, chitotetraose] | not | > 5000 nM | > 5000 nM |  |  |  |  |  |  |  |  |  |  | 
CCCCCC/C=C\CCCCC/C=C/C(=O)N[C@H]1[C@H](O[C@H]2[C@H](O)[C@@H](NC(C)=O)[C@H](O[C@H]3[C@H](O)[C@@H](NC(C)=O)[C@H](O[C@H]4[C@H](O)[C@@H](NC(C)=O)C(O)O[C@@H]4COS(=O)(=O)O)O[C@@H]3CO)O[C@@H]2CO)O[C@H](CO)[C@@H](O)[C@@H]1O (some centres unmarked) [LCO-IV (^35S, C16:2Δ2, 9)] |  |  |  | interact | interact | interact | interact | interact | no interaction | no interaction | interacts | 15 nM | very low | no interaction
